Measurements taken from ChEMBL document CHEMBL1145198, “Checkpoint kinase inhibitors: SAR and radioprotective properties of a series of 2-arylbenzimidazoles” (J Med Chem, 2005).

Biological target: Serine/threonine-protein kinase Chk2 (Homo sapiens, UniProt O96017)
Assay: Inhibition of recombinant human Chk2 kinase

Serine/threonine-protein kinase Chk2, sequence (O96017 whole entry): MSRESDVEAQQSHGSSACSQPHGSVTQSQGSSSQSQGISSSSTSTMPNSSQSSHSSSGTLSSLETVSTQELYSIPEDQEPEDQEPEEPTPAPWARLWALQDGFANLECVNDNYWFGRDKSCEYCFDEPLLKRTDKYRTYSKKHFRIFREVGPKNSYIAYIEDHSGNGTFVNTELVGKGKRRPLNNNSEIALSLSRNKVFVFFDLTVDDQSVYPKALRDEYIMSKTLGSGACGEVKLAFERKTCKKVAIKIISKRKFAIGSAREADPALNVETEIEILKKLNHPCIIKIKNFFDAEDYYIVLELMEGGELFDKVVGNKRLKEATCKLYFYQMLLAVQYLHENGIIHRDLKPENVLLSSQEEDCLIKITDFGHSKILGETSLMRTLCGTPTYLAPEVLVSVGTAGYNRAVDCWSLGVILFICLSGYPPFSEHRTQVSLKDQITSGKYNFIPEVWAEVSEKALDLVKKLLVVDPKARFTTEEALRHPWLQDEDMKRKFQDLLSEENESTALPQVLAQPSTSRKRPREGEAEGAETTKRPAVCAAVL

IC50 [µM]	SMILES
> 10	CN(C)C(=O)c1ccc2[nH]c(-c3ccc(Oc4ccccc4)cc3)nc2c1
> 10	NC(=O)c1ccc2nc(-c3ccc(C(=O)Nc4ccc(Cl)c(Cl)c4)cc3)[nH]c2c1
